Laboratory results published in the NIST ThermoML archive (doi:10.1016/j.tca.2007.07.008).
± gives the expanded uncertainty stated by the source.

Experiments:
[1] = for mass density: 298.15 K, 101.33 kPa, Liquid, Vibrating tube method
[2] = refractive index (Na D-line) (dimensionless); conditions: 298.15 K; 101.33 kPa; Liquid; Standard Abbe refractometry

Compound | refractive index [2] | mass density [1] [kg/m3] | Normal melting temperature ([1]; Crystal) [°C]
CN1C(=O)N(C)C2C1N(C)C(=O)N2C (stereo unspecified) [1,3,4,6-tetramethylglycoluril] | – | – | 228 ± 4
CNC=O [N-methylformamide] | 1.4308 ± 0.0008 | 998.92 ± 0.3 | –
CC(C)=O [acetone] | 1.3563 ± 0.0007 | 784.65 ± 0.16 | –
NC=O [formamide] | 1.4465 ± 0.0007 | 1129.15 ± 0.2 | –

Continued, in another order:

refractive index [2] | mass density [1] [kg/m3] | Compound | Normal melting temperature ([1]; Crystal) [°C]
1.436 ± 0.0007 | 936.5 ± 0.1 | CC(=O)N(C)C [N,N-dimethylethanamide] | –
1.4276 ± 0.0007 | 943.93 ± 0.13 | CN(C)C=O [dimethylformamide] | –
